Legend:
Type in all cases: cell-based, human
[1] = test system: C81 cells; experiment: Sensitivity of C81 transfectants to chemotherapeutic drugs (MTT); details: for sensitivity to Docetaxel: androgen deprived conditions; for decrease of growth: 20 nM, steroid reduced media
Procedure: FIG. 4A-C. […] Equal numbers (5×10^4) of vector or EBP1 stably transfected cells were plated at Day 0 in complete media and viable cell numbers determined at the indicated times. Each point represents mean±S.E. of 3 wells. Representative of 3 experiments (Right panel). Colony growth in soft agar. C81 cells stably transfected with either pcDNA or EBP1 were plated in soft agar at the cell densities indicated and colony numbers assessed at Day 10. Each point represents mean±S.E. of 3 dishes. Data is representative of 3 experiments. B. (Left Panel) Response of EBP1 and vector transfected C81 cells to dihydrotestosterone (DHT). EBP1 and vector control C81 transfected cells and early passage LNCaP cells were plated in complete media at 5×10^3 cells/well in 96 well plates for one day. The next day, cells were switched to steroid reduced medium for two days as described in the Materials and Methods. DHT was then added at the indicated concentrations. Cells were refed media every 3 days. Total cell numbers were determined seven days later by MTT assays. Each point represents mean±S.E. of 6 wells. Data is representative of two experiments. (Right Panel) Effect of Bicalutamide on DHT stimulated growth. Cells were plated as described in the Materials and Methods. After 2 days in steroid reduced medium, cells were fed with fresh steroid reduced medium with or without 10 μM bicalutamide (Casodex) in the presence or absence of 10 nM DHT. Total cell numbers were assessed 7 days later by MTT assay. Cells were refed media every 3 days. The data shown are mean±S.E. of six wells. […] C. […] C81 vector control or EBP1 transfectants were plated in 96 well plates in complete media and allowed to attach overnight. The cells were then placed in steroid reduced media for two days and then refed with steroid reduced media in the presence of the indicated concentrations of Docetaxel (left panel) or Mitoxantrone (right panic). Total cell numbers were determined by MTT assays 5 days later. Each point represents mean±S.E. of 6 wells. Data is representative of two experiments.
Western Blot Analysis. Western blot analysis was performed as previously described (19). The Ebp1 antibody was from Upstate (Lake Placid, N.Y.), the polyclonal antibody to actin from Sigma, the AKT and phospho AKT antibodies from Cell Signaling (Beverly, Mass.) and the AGR2 antibody was previously described (20) Cell Growth Assays Cell growth measurement in complete media was performed as described using a hemocytometer (21). For soft agar growth assays, increasing concentrations of cells (as indicated) were plated in 35 mm Petri dishes in 0.3% agar in complete media and colonies were counted after 10 days of incubation (21). For studies assessing the effect of DHT, HRG or chemotherapeutic agents on cell growth, cells (5×10^3) were plated in 96 well plates in complete media. After a 24-hour attachment period, the medium was replaced with steroid free medium [phenol red free RPMI 1640 and 5% charcoal stripped fetal bovine serum (Sigma)]. After 48 hours of steroid depletion, cells were refed with fresh steroid reduced medium with or without the indicated concentrations of DHT, bicalutamide (Casodex) (10 μM), HRG or the chemotherapeutic drugs at the concentrations indicated. Relative cell growth was determined using a Promega Proliferation Reagent (Promega, Madison Wis.) as per manufacturer's instructions with absorbance being read at […] using a Dynex plate reader. […]

[2] = test system: LNCaP cells; experiment: Response of A16 and C13 LNCaP cells to docetaxel (MTT)
Procedure: FIG. 7A-C. Suppression of EBP1 by shRNA promotes a hormone refractory phenotype A. Western blot analysis of Ebp1. Lysates of LNCaP cells stably transduced with a control lentivirus (A16) or an EBP1 targeted shRNA (13C) were collected and resolved by SDS-PAGE. Western blots were probed for endogenous EBP1 or ACTIN as indicated. B. Inhibition of EBP1 expression abrogates the ability of HRG to arrest growth (Left panel) Control and shRNA EBP1 targeted cells were plated in complete media at […] for one day. The next day, cells were switched to steroid reduced-media and HRG added at the indicated concentrations. Total cell numbers were determined seven days later by MTT assay. Each point represents mean±S.E. of 6 wells. Data is representative of three experiments. (Right Panel) AKT phosphorylation in EBP1 knock out cells Control (A16) or EBP 1 knock out cells (C13) were treated with HRG (20 ng/ml) for 15 mm and cell lysates assessed for the presence of phospho and total AKT as indicated. C. […] Sixteen hours later, luciferase activity was measured. […] Lysates of logarithmically growing A16 and C13 cells were resolved by SDS-PAGE and analyzed by Western blotting using antibodies to AGR2 and ACTIN as indicated. […] The viability of the cells was determined by MTT assays 5 days later. […]

[3] = test system: MCF-7 cells; experiment: Growth of MCF-7 vector control and EBP1 transfectants in response to HRG or EGF
Procedure: FIG. 9A-D. Ectopic expression of EBP1 blocks HRG-induced proliferation. (A) MCF 7 cells were stably transfected with a control Flag vector (CMV) or a FLAG-EBP1 vector (EBP1). Cells lysates were analyzed by Western blotting for FLAG and actin levels as indicated (left panel) or EBP1 and actin (right panel). (B) MCF-7 vector control (Control) or EBP1 transfected cells (EBP1) were plated in 96-well plates in complete media overnight, and then switched to media with 2% FBS and the indicated concentrations of HRGb1 as described in Section 2. Growth was determined 4 days later using a Promega Proliferation Assay. Each point represents the mean±SD for six wells. Data shown are representative of three experiments. (C) AU565 vector control (Control) or EBP1 transfected cells (EBP1) were plated in 96-well plates in complete media overnight, and then switched to media with 2% FBS and the indicated concentrations of HRGβ1. Growth was determined 4 days later using a Promega Proliferation Assay. Each point represents the mean±SD for six wells and is representative of two experiments. […] Growth was determined 4 days later using a Promega Proliferation Assay. […]
2.5. […] Protein concentrations were measured using a detergent compatible kit (Bio-Rad). […] Images were quantified using IMAGE-J software (NIH). […]

For `CC(=O)O[C@@]12CO[C@@H]1C[C@H](O)[C@@]1(C)C(=O)[C@H](O)C3=C(C)[C@@H](OC(=O)[C@H](O)[C@@H](NC(=O)OC(C)(C)C)c4ccccc4)C[C@@](O)([C@@H](OC(=O)c4ccccc4)[C@H]21)C3(C)C` [Docetaxel], which “sensitivity to Docetaxel” value ([1]; C81 cells) is on record?
The value was “relatively refractory”.

And the “sensitivity to Docetaxel” value ([1]; EBP1 transfected C81 cells, 5-20 nM)?
Its value is “significantly more sensitive”.

What about the reduction in growth ([2]; A16 control LNCaP cells, 5 nM) of the same molecule?
Its reduction in growth is 65%.

What about the inhibition at 0.02 µM ([2]; Homo sapiens, C13 EBP1 knock down LNCaP cells, 20 nM, read-out: maximum growth inhibition) of the same molecule?
The inhibition at 0.02 µM was 15%.

With `O=C1c2c(O)ccc(O)c2C(=O)c2c(NCCNCCO)ccc(NCCNCCO)c21` [Mitoxantrone] as the molecule, how does the decrease of growth ([1]; C81 EBP1 transfectants) read?
The decrease of growth was “approximately 80%”.

What about the decrease of growth ([1]; C81 vector controls) of the same molecule?
Its decrease of growth is 40%.

What about the “concentration at which sensitivity plateaued” value ([1]; both vector control and EBP1 transfectants) of the same molecule?
The value was 20 nM.

How did the “growth response to EGF” value ([3]; MCF-7 EBP1 transfected cells) turn out when “EGF: growth factor from Sigma used to stimulate MCF-7 growth” was run?
Its value is “growth stimulated by EGF to the same extent as control cells”.

And the “growth response to EGF” value ([3]; MCF-7 control cells)?
Its value is “able to respond to EGF”.

Reference: patent US7838495B2, “Compositions and methods of use of EPB1, and ErbB3 binding protein” (University of Maryland, Baltimore, priority 2007, dated 2010)
